The test system of assay [1] is nucleoside oxidase YT-1. Format: biochemical, Pseudomonas maltophilia LB-86. The settings on record: for Relative activity: enzyme 0.02 U on inosine, pH 6.0, 25° C., 10 minutes; for Effect of inhibitor (enzyme inhibited): statement in words. On the procedure:
A solution of the present enzyme (0.02 U) was caused to act on inosine at pH 6.0 and 25° C. for 10 minutes in the presence of various inhibitors, and the enzymatic activity was thereafter measured.

Assay [2] deals with nucleoside oxidase YT-1. As to the kind of experiment: Substrate specificity test (nucleoside oxidase activity, oxygen consumption). Format: biochemical, Pseudomonas maltophilia LB-86. The settings on record: for Relative activity: relative to activity on inosine taken as 100; for Substrate specificity (enzyme active / not active on substance): statement in words.
Experimental: The consumption of 1 μM of oxygen per minute is taken as 1 unit (U).

Read-outs that look alike come from different tables or passages of the source.

With Mercury p-chorobenzoate, the Relative activity in the assay on nucleoside oxidase YT-1 [1] (inhibitor 1 mM) was found to be 98.9%.

In the case of `c1cnc2c(c1)ccc1cccnc12` [o-Phenanthroline], the Relative activity in the assay with nucleoside oxidase YT-1 [1] (inhibitor 1 mM) is recorded as 94.7%.

For `O=c1[nH]c(=O)c2[nH]cnc2[nH]1` [Xanthine], in the assay with nucleoside oxidase YT-1 [2] (substrate 0.4 mM), the Relative activity is listed as 0%.

Take `O=CC[C@H](O)[C@H](O)CO` [2-Deoxy-D-ribose]: the Relative activity in the assay on nucleoside oxidase YT-1 [2] (substrate 20 mM) is reported as 0%.

For `Nc1ncnc2c1ncn2[C@@H]1O[C@H](CO)[C@@H](O)[C@H]1O` [Adenosine], in the assay on nucleoside oxidase YT-1 [2] (substrate 10 mM), the Relative activity worked out at 97.3%.

`OC[C@H]1O[C@@H](n2cnc3c(O)ncnc32)C[C@@H]1O` [Deoxyinosine]: the Relative activity with nucleoside oxidase YT-1 [2] (substrate 10 mM) came out at 80.7%.

Regarding `CC(=O)[O-].CC(=O)[O-].[Pb+2]` [Pb(CH3 COO)2], in the assay on nucleoside oxidase YT-1 [1] (inhibitor 1 mM), the Relative activity was 81.3%.

With `Nc1ncnc2c1ncn2[C@H]1C[C@H](O)[C@@H](CO)O1` [Deoxyadenosine], the Relative activity with nucleoside oxidase YT-1 [2] (substrate 10 mM) was 81.4%.

In the case of `NN.O=S(=O)(O)O` [Hydrazine sulfate], the Relative activity in the assay with nucleoside oxidase YT-1 [1] (inhibitor 1 mM) worked out at 101%.

As to `N#CO` [Potassium cyanate], the Relative activity stood at 34.8% with nucleoside oxidase YT-1 [1] (inhibitor 1 mM) and 0% with nucleoside oxidase YT-1 [1] (inhibitor 10 mM). Further, the “Effect of inhibitor (enzyme inhibited)” value in the assay with nucleoside oxidase YT-1 [1] is “inhibited”; in the assay with nucleoside oxidase YT-1 [1] (listed as potassium cianate), “Inhibited”.

On to `O=c1[nH]c(=O)c2ncn([C@@H]3O[C@H](CO)[C@@H](O)[C@H]3O)c2[nH]1` [Xanthosine], for which, in the assay with nucleoside oxidase YT-1 [2] (substrate 10 mM), the Relative activity was determined as 125%.

Consider `O=C[C@H](O)[C@H](O)[C@H](O)CO` [D-ribose], for which the “Substrate specificity (enzyme active / not active on substance)” value in the assay with nucleoside oxidase YT-1 [2] was “not active”. Moreover, the Relative activity with nucleoside oxidase YT-1 [2] (substrate 20 mM) is on record as 0%.

For `Cc1c[nH]c(=O)[nH]c1=O` [Thymine], the Relative activity with nucleoside oxidase YT-1 [2] (substrate 20 mM) is 0%.

Regarding `Nc1nc2c(ncn2[C@H]2C[C@H](O)[C@@H](CO)O2)c(=O)[nH]1` [Deoxyguanosine], in the assay on nucleoside oxidase YT-1 [2] (substrate 10 mM), the Relative activity is given as 92.3%.

Take `O=c1[nH]cnc2nc[nH]c12` [Hypoxanthine]: the “Substrate specificity (enzyme active / not active on substance)” value in the assay on nucleoside oxidase YT-1 [2] is recorded as “not active”. In the assay with nucleoside oxidase YT-1 [2] (substrate 5.2 mM), the Relative activity was found to be 0%.

In the case of `Nc1ncnc2nc[nH]c12` [Adenine], the Relative activity with nucleoside oxidase YT-1 [2] (substrate 10 mM) turned out to be 0%.

Consider `O=c1cc[nH]c(=O)[nH]1` [Uracil], for which, in the assay with nucleoside oxidase YT-1 [2] (substrate 20 mM), the Relative activity is 0%.

Consider `O=P(O)(O)OC[C@H]1OC(O)[C@H](O)[C@@H]1O` (stereo partly drawn) [D-ribose-5-phosphoric acid], for which the Relative activity in the assay with nucleoside oxidase YT-1 [2] (substrate 20 mM) is listed as 0%.

For the molecule `O=P(O)(O)OC1O[C@H](CO)[C@@H](O)[C@H]1O` (stereo partly drawn) [D-ribose-1-phosphoric acid], the Relative activity in the assay with nucleoside oxidase YT-1 [2] (substrate 20 mM) is 0%.

Turning to `Cc1cn([C@H]2C[C@H](O)[C@@H](CO)O2)c(=O)[nH]c1=O` [Thymidine], the Relative activity with nucleoside oxidase YT-1 [2] (substrate 10 mM) is on record as 55.8%.

With `O=c1ccn([C@@H]2O[C@H](CO)[C@@H](O)[C@H]2O)c(=O)[nH]1` [Uridine], the Relative activity in the assay on nucleoside oxidase YT-1 [2] (substrate 10 mM) came to 92.8%.

For `Nc1nc2c(ncn2[C@@H]2O[C@H](COP(=O)(O)O)[C@@H](O)[C@H]2O)c(=O)[nH]1` [5'-GMP], the Relative activity in the assay with nucleoside oxidase YT-1 [2] (substrate 10 mM) came to 0%.

`Cc1cn([C@H]2C[C@H](O)[C@@H](CO)O2)c(=O)[nH]c1=O` [Deoxythymidine]: the Relative activity in the assay on nucleoside oxidase YT-1 [2] (substrate 10 mM) was 77.3%.

For `Nc1nc2nc[nH]c2c(=O)[nH]1` [Guanine], the Relative activity in the assay on nucleoside oxidase YT-1 [2] (substrate 0.4 mM) is 0%.

In the case of `Nc1ncnc2c1ncn2[C@@H]1O[C@H](COP(=O)(O)O)[C@@H](O)[C@H]1O` [5'-AMP, 5'-adenosine monophosphate], the Relative activity in the assay with nucleoside oxidase YT-1 [2] (substrate 10 mM) is reported as 0%.

In the case of `Nc1ccn([C@@H]2O[C@H](CO)[C@@H](O)[C@H]2O)c(=O)n1` [Cytidine], the Relative activity in the assay on nucleoside oxidase YT-1 [2] (substrate 10 mM) was determined as 77.5%.

Take `Nc1nc2c(ncn2[C@@H]2O[C@H](CO)[C@@H](O)[C@H]2O)c(=O)[nH]1` [Guanosine]: the Relative activity with nucleoside oxidase YT-1 [2] (substrate 10 mM) came out at 121%.

`Nc1ncnc2c1ncn2[C@@H]1O[C@H](COP(=O)(O)OP(=O)(O)OP(=O)(O)O)[C@@H](O)[C@H]1O` [5'-ATP]: the Relative activity with nucleoside oxidase YT-1 [2] (substrate 10 mM) turned out to be 0%.

In the case of `Nc1cc[nH]c(=O)n1` [Cytosine], in the assay with nucleoside oxidase YT-1 [2] (substrate 20 mM), the Relative activity is recorded as 0%.

`Nc1ncnc2c1ncn2[C@@H]1O[C@H](COP(=O)(O)OP(=O)(O)O)[C@@H](O)[C@H]1O` [5'-ADP]: the Relative activity in the assay with nucleoside oxidase YT-1 [2] (substrate 10 mM) is 0%.

For the origin of these results see patent US5156955A, “Nucleoside oxidase and assay method utilizing same” (priority 1988, dated 1992).
